A word on the IC50: it is the concentration that inhibits the measured activity by half. A higher IC50 goes with lower potency.

The record followed here is patent US10231967B2, “Compounds and their use as BACE inhibitors” (ASTRAZENECA AB, priority 2010, dated 2019).

The first assay has as its system sAPPβ release in SH-SY5Y cells. Nature of the assay: sAPPβ release assay. The format is cell-based. The note with it: Homo sapiens, SH-SY5Y, 17 h, compounds incubated 17 h, MSD detection. In short, it runs like this: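 SH-SY5Y cells were exposed to compounds at 1% DMSO final for 17 h at 37 °C. Secreted sAPPβ in 20 μL of medium was quantified by MSD electrochemiluminescence immunoassay with 1 nM detection antibody. Cell plates were then used in an ATP assay for cytotoxicity.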
With `COC1CCC2(CC1)Cc1ccc(Br)cc1[C@@]21N=C(C)C(N)=N1` (single isomer, unassigned) [Example 19 Isomer 1], the IC50 turned out to be 18 nM. On the same count and under the same terms, next, `CO[C@H]1CC[C@]2(CC1)Cc1ccc(C#CC(C)(C)C)cc1C21N=C(C)C(N)=N1` (stereo partly drawn) [Example 20h]: 7.1 nM; `CO[C@H]1CC[C@]2(CC1)Cc1ccc(-c3ccc4[nH]cc(C)c4c3)cc1C21N=C(C)C(N)=N1` (stereo partly drawn) [Example 121, (1r,4r)-4-Methoxy-5″-methyl-6′-(3-methyl-1H-indol-5-yl)-3′H-dispiro[cyclohexane-1,2′-indene-1′,2″-imidazol]-4″-amine]: 10 nM; `CO[C@H]1CC[C@]2(CC1)Cc1ccc(-c3cnc(C)c(Cl)c3)cc1C21N=C(C)C(N)=N1` (stereo partly drawn) [Example 60, (1r,4r)-6′-(5-Chloro-6-methylpyridin-3-yl)-4-methoxy-5″-methyl-3′H-dispiro[cyclohexane-1,2′-indene-1′,2″-imidazol]-4″-amine]: 8.7 nM. Still for that read-out and setting: as for `CCO[C@H]1CC[C@]2(CC1)Cc1ccc(-c3cc(F)cc(C#N)c3)cc1C21N=C(C)C(N)=N1` (stereo partly drawn) [Example 132, 3-[(1r,4r)-4″-amino-4-ethoxy-5″-methyl-3′H-dispiro[cyclohexane-1,2′-indene-1′,2″-imidazol]-6′-yl]-5-fluorobenzonitrile], the figure is 17 nM; as for `CC1=N[C@]2(C[C@H]([C@H]3CCCOC3)Oc3ccc(-c4cccc(Cl)c4)cc32)N=C1N` [Example 48 Isomer 4, (2R,4R)-6-(3-chlorophenyl)-5′-methyl-2-[(3 S)-tetrahydro-2H-pyran-3-yl]-1′,2,3,3′-tetrahydrospiro[chromene-4,2′-imidazol]-4′-amine], 689 nM; as for `CC#Cc1cncc(-c2ccc3c(c2)C2(N=C(C)C(N)=N2)C2(CCC(F)(F)CC2)C3)c1` (stereo not drawn) [Example 28h, 4,4-Difluoro-5″-methyl-6′-[5-(prop-1-yn-1-yl)pyridin-3-yl]-3′H-dispiro[cyclohexane-1,2′-indene-1′,2″-imidazol]-4″-amine], 18 nM. In turn, `CO[C@H]1CC[C@]2(CC1)Cc1ccc(C#CC(C)C)cc1C21N=C(C)C(N)=N1` (stereo partly drawn) [Example 113, (1r,4r)-4-Methoxy-5″-methyl-6′-(3-methylbut-1-yn-1-yl)-3′H-dispiro[cyclohexane-1,2′-indene-1′,2″-imidazol]-4″-amine] had an IC50 of 1.6 nM. Still for that read-out and setting: next, `CC1=NC2(N=C1N)c1cc(-c3cncc(Cl)c3)ccc1CC21CCC(F)(F)CC1` (stereo not drawn) [Example 28c, 6′-(5-Chloropyridin-3-yl)-4,4-difluoro-5″-methyl-3′H-dispiro[cyclohexane-1,2′-indene-1′,2″-imidazol]-4″-amine]: 109 nM; `CC#Cc1cccc(-c2ccc3c(c2)C2(N=C(C)C(N)=N2)[C@]2(CC[C@H](OC)CC2)C3)c1Cl` (stereo partly drawn) [Example 123, (1r,4r)-6′-[2-Chloro-3-(prop-1-yn-1-yl)phenyl]-4-methoxy-5″-methyl-3′H-dispiro[cyclohexane-1,2′-indene-1′,2″-imidazol]-4″-amine]: 135 nM; `CO[C@H]1CC[C@]2(CC1)Cc1ccc(NC(=O)c3ccc(C(F)(F)F)cn3)cc1C21N=C(C)C(N)=N1` (stereo partly drawn) [Example 20k, N-[(1r,4r)-4″-Amino-4-methoxy-5″-methyl-3′H-dispiro[cyclohexane-1,2′-indene-1′,2″-imidazol]-6′-yl]-5-(trifluoromethyl)pyridine-2-carboxamide]: 8.6 nM. Molecule `CO[C@H]1CC[C@]2(CC1)Cc1ccc(NC(=O)c3ncc(Cl)cc3Cl)cc1C21N=C(C)C(N)=N1` (stereo partly drawn) [Example 20o, N-[(1r,4r)-4″-Amino-4-methoxy-5″-methyl-3′H-dispiro[cyclohexane-1,2′-indene-1′,2″-imidazol]-6′-yl]-3,5-dichloropyridine-2-carboxamide] returned an IC50 of 9.2 nM. In turn, `CC1=N[C@]2(C[C@H]([C@@H]3CCCOC3)Oc3ccc(-c4cccc(Cl)c4)cc32)N=C1N` [Example 48 Isomer 7, (2R,4R)-6-(3-chlorophenyl)-5′-methyl-2-[(3R)-tetrahydro-2H-pyran-3-yl]-1′,2,3,3′-tetrahydrospiro[chromene-4,2′-imidazol]-4′-amine] yielded an IC50 of 191 nM. Regarding `COCc1cccc(-c2ccc3c(c2)C2(N=C(C)C(N)=N2)[C@]2(CC[C@H](OC)CC2)C3)c1` (stereo partly drawn) [Example 80, (1r,4r)-4-Methoxy-6′-[3-(methoxymethyl)phenyl]-5″-methyl-3′H-dispiro[cyclohexane-1,2′-indene-1′,2″-imidazol]-4″-amine], the half-maximal inhibitory concentration (IC50) came out at 13 nM. Molecule `CC1=N[C@]2(C[C@@H]([C@@H]3CCCOC3)Oc3ccc(-c4cccc(Cl)c4)cc32)N=C1N` [Example 48 Isomer 1, (2S,4R)-6-(3-chlorophenyl)-5′-methyl-2-[(3R)-tetrahydro-2H-pyran-3-yl]-2,3-dihydrospiro[chromene-4,2′-imidazol]-4′-amine] had an IC50 of 20 nM.

The same assay, now with this note: Homo sapiens, compounds incubated 17 h, MSD detection.
Regarding `CC#Cc1cncc(-c2ccc3c(c2)C2(N=C(C)C(N)=N2)[C@]2(CC[C@](C)(OC)CC2)C3)c1` (stereo partly drawn) [Example 111, (1r,4r)-4-Methoxy-4,5″-dimethyl-6′-[5-(prop-1-yn-1-yl)pyridin-3-yl]-3′H-dispiro[cyclohexane-1,2′-indene-1′,2″-imidazol]-4″-amine], it took 31 nM to reach half-maximal inhibition (IC50). The molecule `CC1=NC2(CCOc3ccc(-c4cc(F)cc(F)c4)cc32)N=C1N` (stereo not drawn) [Example 3, 6-(3,5-Difluorophenyl)-5′-methylspiro[chroman-4,2′-imidazol]-4′-amine] registered an IC50 of 2880 nM.

`COc1cc(C#N)cc(-c2ccc3c(c2)[C@@]2(N=C(C)C(N)=N2)[C@]2(CC[C@H](OC)CC2)C3)c1` (single isomer, unassigned) [Example 92 Isomer 1] returned an IC50 of 0.27 nM. In turn, `CCO[C@H]1CC[C@]2(CC1)Cc1ccc(-c3cncc(Cl)c3)cc1C21N=C(C)C(N)=N1` (stereo partly drawn) [Example 133, (1r,4r)-6′-(5-chloropyridin-3-yl)-4-ethoxy-5″-methyl-3′H-dispiro[cyclohexane-1,2′-indene-1′,2″-imidazol]-4″-amine] displayed an IC50 of 5.5 nM.

Molecule `CO[C@H]1CC[C@]2(CC1)Cc1ccc(-c3cncc(C(F)F)c3)cc1C21N=C(C)C(N)=N1` (stereo partly drawn) [Example 120, (1r,4r)-6′-[5-(Difluoromethyl)pyridin-3-yl]-4-methoxy-5″-methyl-3′H-dispiro[cyclohexane-1,2′-indene-1′,2″-imidazol]-4″-amine] displayed a concentration for half-maximal inhibition (IC50) of 3.1 nM.

Turning to `CO[C@H]1CC[C@]2(CC1)Cc1ccc(-c3cccc(F)c3F)cc1[C@@]21N=C(C)C(N)=N1` [Example 101], inhibition was half-maximal at 6.3 nM (IC50). `COc1cc(C#N)cc(-c2ccc3c(c2)C2(N=C(C)C(N)=N2)[C@]2(CC[C@H](OC)CC2)C3)c1` (stereo partly drawn) [Example 91, 3-[(1r,4r)-4″-Amino-4-methoxy-5″-methyl-3′H-dispiro[cyclohexane-1,2′-indene-1′,2″-imidazol]-6′-yl]-5-methoxybenzonitrile]: it took 0.62 nM to reach half-maximal inhibition (IC50). Take `COC1CCC2(CC1)Oc1ccc(-c3cncc(Cl)c3)cc1C21N=C(C)C(N)=N1` (stereo not drawn) [Example 30d, 5′-(5-Chloropyridin-3-yl)-4-methoxy-5′-methyldispiro[cyclohexane-1,2′-[1]benzofuran-3′,2″-imidazol]-4″-amine]: it took 97 nM to reach half-maximal inhibition (IC50). Same read-out and setting: as for `CO[C@H]1CC[C@]2(CC1)Cc1ccc(-c3cc(C#N)ccc3F)cc1[C@@]21N=C(C)C(N)=N1` [Example 102, 3-[(1r,1′R,4R)-4″-Amino-4-methoxy-5″-methyl-3′H-dispiro[cyclohexane-1,2′-indene-1′,2″-imidazol]-6′-yl]-4-fluorobenzonitrile], the figure is 2.5 nM.
